Laboratory results published in patent publication US12331035B2, “Bicyclic compound and use thereof” (SK BIOPHARMACEUTICALS CO., LTD., priority 2019, dated 2025).

target: T1, PRMT5-MEP50 enzyme complex (Homo sapiens, UniProt O14744); assay: In vitro PRMT5 enzyme activity assay (methylation of histone H4 arginine H4R3, ELISA absorbance at 450 nm); assay type: biochemical; conditions: S-adenosylmethionine, histone H4 peptide, 2 hours at room temperature, 8 points 10 μM to 0.128 nM
T1 construct: purchased BPS Bioscience (USA) 51045
Description: Method for Measuring Enzyme Activity
In vitro assay: PRMT5-MEP50 enzyme complex, cofactor S-adenosylmethionine (SAM) and histone H4 peptide were reacted in vitro, and methylation of arginine (H4R3) —which is the third amino acid of histone H4—was measured in order to measure the enzyme activity of PRMT5.
Reagents: PRMT5-MEP50 enzyme complex (Catalog No. 51045), blocking buffer (52100-B), histone methyltransferase reaction buffer 2 (4×HMT assay buffer 2, Catalog No. 52170), and primary antibody (primary antibody 4-3, Catalog No. 52150) were purchased from BPS Bioscience (USA). The histone H4 peptide (1-20 amino acids) was custom made by Komabiotech (Korea) and used. S-adenosylmethionine was purchased from NEB (New England Biolabs, USA, Catalog No. B9003S). Plates for coating histone H4 peptide, washing buffer and color development reagent were purchased from the following vendors: Plate (Immobilizer™-Amino Plate, NUNC, Denmark, Catalog No. 436023), carbonate-bicarbonate buffer (Sigma-Aldrich, USA, Catalog No. C3041), washing buffer (10×TBST, Biosesang, Korea, Catalog No. T2005), TMB ELISA substrate (Abcam, UK, Catalog No. ab210902), horseradish peroxidase (HRP)-conjugated antibody (Abcam, UK, Catalog No. ab6721).
Experimental procedure: The histone H4 peptide was diluted with carbonate-bicarbonate buffer and prepared to 100 μg/mL, and then dispensed onto the plate per 100 μL and reacted at 37° C. for 1 hour. PRMT5-MEP50 enzyme complex and S-adenosylmethionine were diluted with histone methyltransferase reaction buffer to prepare 5 μg/mL and 2 μM, respectively, and then 20 μL of PRMT5-MEP50 enzyme complex and 25 μL of S-adenosylmethionine were dispensed onto the plate prepared above. 5 μL of the compound diluted with 10% dimethyl sulfoxide solution was added thereto and reacted at room temperature for 2 hours (final volume=50 μL). The concentration of the compound was diluted 1:5 from 10 μM until the lowest concentration of 0.128 nM, and 8 points were used for the test. After preparing the primary antibody by diluting 1:2000 with blocking buffer, 100 μL was added to the plate and reacted at room temperature for 1 hour. After preparing horseradish peroxidase-conjugated antibody by diluting 1:10,000 with blocking buffer, 100 μL was added to the plate and reacted at room temperature for 1 hour. 100 μL of TMB substrate was added and reacted for 3 minutes at room temperature, and 100 μL of 1 N sulfuric acid was then added to terminate the reaction. Then, the absorbance at 450 nm was measured to calculate the IC50 value of the compound. (+++: 1 to 100 nM, ++: greater than 100 to 1,000 nM, +: greater than 1,000 to 10,000 nM)

T1 sequence (O14744 2-637 limits assumed): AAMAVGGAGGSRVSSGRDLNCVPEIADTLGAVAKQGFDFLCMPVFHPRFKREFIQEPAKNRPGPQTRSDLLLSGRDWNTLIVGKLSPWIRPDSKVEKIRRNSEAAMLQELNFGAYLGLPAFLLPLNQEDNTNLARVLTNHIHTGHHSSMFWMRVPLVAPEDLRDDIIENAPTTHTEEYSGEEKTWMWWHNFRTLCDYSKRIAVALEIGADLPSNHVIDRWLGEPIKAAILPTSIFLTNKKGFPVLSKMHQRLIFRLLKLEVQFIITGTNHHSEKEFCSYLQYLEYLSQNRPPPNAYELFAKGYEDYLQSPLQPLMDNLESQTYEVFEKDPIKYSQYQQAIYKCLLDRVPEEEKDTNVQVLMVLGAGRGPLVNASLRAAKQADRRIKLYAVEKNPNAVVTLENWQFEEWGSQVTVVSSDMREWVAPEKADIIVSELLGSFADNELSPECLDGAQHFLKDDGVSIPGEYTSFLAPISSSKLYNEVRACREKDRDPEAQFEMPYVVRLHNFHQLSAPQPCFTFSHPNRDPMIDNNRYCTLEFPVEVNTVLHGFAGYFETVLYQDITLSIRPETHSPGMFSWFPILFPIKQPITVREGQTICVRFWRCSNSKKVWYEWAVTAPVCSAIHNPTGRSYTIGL
T1 sequence (Q9BQA1 2-342 partner limits assumed): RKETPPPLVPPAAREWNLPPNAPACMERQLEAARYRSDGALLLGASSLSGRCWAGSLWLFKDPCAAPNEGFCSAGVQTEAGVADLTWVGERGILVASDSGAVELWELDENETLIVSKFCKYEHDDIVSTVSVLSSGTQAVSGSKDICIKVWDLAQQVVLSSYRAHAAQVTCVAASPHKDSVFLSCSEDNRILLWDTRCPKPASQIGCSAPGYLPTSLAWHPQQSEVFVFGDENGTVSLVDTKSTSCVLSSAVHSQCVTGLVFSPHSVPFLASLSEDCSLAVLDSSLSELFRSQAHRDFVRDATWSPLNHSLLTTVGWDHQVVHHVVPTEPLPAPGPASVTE

| IC50 [nM] | SMILES |
| --- | --- |
| 1 to 100 | CN1CCN(c2ccc3c(c2)CCN(C[C@H](O)CN2CCc4ccccc4C2)C3=O)CC1=O [Example 55, 2-[(2R)-3-(3,4-dihydro-1H-isoquinolin-2-yl)-2-hydroxy-propyl]-6-(4-methyl-3-oxo-piperazin-1-yl)-3,4-dihydroisoquinolin-1-one] |
| 1 to 100 | CC(C)(C)OC(=O)N1CC=C(c2ccc3c(c2)CCN(C[C@H](O)CN2CCc4ccccc4C2)C3=O)CC1 [Example 56, tert-butyl 4-[2-[(2R)-3-(3,4-dihydro-1H-isoquinolin-2-yl)-2-hydroxy-propyl]-1-oxo-3,4-dihydroisoquinolin-6-yl]-3,6-dihydro-2H-pyridine-1-carboxylate] |
| 1 to 100 | O=C1c2ccc(N3CCNCC3)cc2CCN1C[C@H](O)CN1CCc2ccccc2C1 [Example 58, 2-[(2R)-3-(3,4-dihydro-1H-isoquinolin-2-yl)-2-hydroxy-propyl]-6-piperazin-1-yl-3,4-dihydroisoquinolin-1-one] |
| 100 to 1000 | CS(=O)(=O)N1CCN(c2ccc3c(c2)CCN(C[C@H](O)CN2CCc4ccccc4C2)C3=O)CC1 [Example 59, 2-[(2R)-3-(3,4-dihydro-1H-isoquinolin-2-yl)-2-hydroxy-propyl]-6-(4-methylsulfonylpiperazin-1-yl)-3,4-dihydroisoquinolin-1-one] |
| 100 to 1000 | COC(=O)N1CCN(c2ccc3c(c2)CCN(C[C@H](O)CN2CCc4ccccc4C2)C3=O)CC1 [Example 60, methyl 4-[2-[(2R)-3-(3,4-dihydro-1H-isoquinolin-2-yl)-2-hydroxy-propyl]-1-oxo-3,4-dihydroisoquinolin-6-yl]piperazine-1-carboxylate] |
| 1 to 100 | CC(=O)N1CC=C(c2ccc3c(c2)CCN(C[C@H](O)CN2CCc4ccccc4C2)C3=O)CC1 [Example 61, 6-(1-acetyl-3,6-dihydro-2H-pyridin-4-yl)-2-[(2R)-3-(3,4-dihydro-1H-isoquinolin-2-yl)-2-hydroxy-propyl]-3,4-dihydroisoquinolin-1-one] |
| 1 to 100 | O=C1c2ccc(N3CCN(C(=O)C(F)(F)F)CC3)cc2CCN1C[C@H](O)CN1CCc2ccccc2C1 [Example 62, 2-[(2R)-3-(3,4-dihydro-1H-isoquinolin-2-yl)-2-hydroxy-propyl]-6-[4-(2,2,2-trifluoroacetyl)piperazin-1-yl]-3,4-dihydroisoquinolin-1-one] |
| 100 to 1000 | CC(C)(C)OC(=O)N1CCC(c2ccc3c(c2)CCN(C[C@H](O)CN2CCc4ccccc4C2)C3=O)CC1 [Example 63, tert-butyl 4-[2-[(2R)-3-(3,4-dihydro-1H-isoquinolin-2-yl)-2-hydroxy-propyl]-1-oxo-3,4-dihydroisoquinolin-6-yl]piperidine-1-carboxylate] |
| 1 to 100 | CC(C)N1CCN(c2ccc3c(c2)CCN(C[C@H](O)CN2CCc4ccccc4C2)C3=O)CC1 [Example 64, [(2R)-3-(3,4-dihydro-1H-isoquinolin-2-yl)-2-hydroxy-propyl]-6-(4-isopropylpiperazin-1-yl)-3,4-dihydroisoquinolin-1-one] |
| 1000 to 10000 | CCOC(=O)N1CCN(c2ccc3c(c2)CCN(C[C@H](O)CN2CCc4ccccc4C2)C3=O)CC1 [Example 65, ethyl 4-[2-[(2R)-3-(3,4-dihydro-1H-isoquinolin-2-yl)-2-hydroxy-propyl]-1-oxo-3,4-dihydroisoquinolin-6-yl]piperazine-1-carboxylate] |
| 1 to 100 | COC1CCN(Cc2ccc3c(c2)CCN(C[C@H](O)CN2CCc4ccccc4C2)C3=O)CC1 [Example 66, 2-[(2R)-3-(3,4-dihydro-1H-isoquinolin-2-yl)-2-hydroxy-propyl]-6-[(4-methoxy-1-piperidyl)methyl]-3,4-dihydroisoquinolin-1-one] |
| 1000 to 10000 | CC(=O)N1CCC(c2ccc3c(c2)CCN(C[C@H](O)CN2CCc4ccccc4C2)C3=O)CC1 [Example 67, 6-(1-acetyl-4-piperidyl)-2-[(2R)-3-(3,4-dihydro-1H-isoquinolin-2-yl)-2-hydroxy-propyl]-3,4-dihydroisoquinolin-1-one] |
| 1 to 100 | CC(=O)N1CCN(Cc2ccc3c(c2)CCN(C[C@H](O)CN2CCc4ccccc4C2)C3=O)CC1 [Example 68, 6-[(4-acetylpiperazin-1-yl)methyl]-2-[(2R)-3-(3,4-dihydro-1H-isoquinolin-2-yl)-2-hydroxy-propyl]-3,4-dihydroisoquinolin-1-one] |
| 100 to 1000 | CCC(=O)N1CCN(c2ccc3c(c2)CCN(C[C@H](O)CN2CCc4ccccc4C2)C3=O)CC1 [Example 69, 2-[(2R)-3-(3,4-dihydro-1H-isoquinolin-2-yl)-2-hydroxy-propyl]-6-(4-propanoylpiperazin-1-yl)-3,4-dihydroisoquinolin-1-one] |
| 1 to 100 | CC(C)C(=O)N1CCN(c2ccc3c(c2)CCN(C[C@H](O)CN2CCc4ccccc4C2)C3=O)CC1 [Example 70, 2-[(2R)-3-(3,4-dihydro-1H-isoquinolin-2-yl)-2-hydroxy-propyl]-6-[4-(2-methylpropanoyl)piperazin-1-yl]-3,4-dihydroisoquinolin-1-one] |
| 1 to 100 | CC(C)(C)C(=O)N1CCN(c2ccc3c(c2)CCN(C[C@H](O)CN2CCc4ccccc4C2)C3=O)CC1 [Example 71, 2-[(2R)-3-(3,4-dihydro-1H-isoquinolin-2-yl)-2-hydroxy-propyl]-6-[4-(2,2-dimethylpropanoyl)piperazin-1-yl]-3,4-dihydroisoquinolin-1-one] |
| 100 to 1000 | CC(C)(C)OC(=O)N1CC2CC1CN2c1ccc2c(c1)CCN(C[C@H](O)CN1CCc3ccccc3C1)C2=O (stereo partly drawn) [Example 72, tert-butyl 5-[2-[(2R)-3-(3,4-dihydro-1H-isoquinolin-2-yl)-2-hydroxy-propyl]-1-oxo-3,4-dihydroisoquinolin-6-yl]-2,5-diazabicyclo[2.2.1]heptane-2-carboxylate] |
| 100 to 1000 | O=C1c2ccc(N3CC4CC3CO4)cc2CCN1C[C@H](O)CN1CCc2ccccc2C1 (stereo partly drawn) [Example 73, 2-[(2R)-3-(3,4-dihydro-1H-isoquinolin-2-yl)-2-hydroxy-propyl]-6-(2-oxa-5-azabicyclo[2.2.1]heptan-5-yl)-3,4-dihydroisoquinolin-1-one] |
| 100 to 1000 | O=C1c2ccc(Cl)nc2CCN1C[C@H](O)CN1CCc2ccccc2C1 [Example 75, 2-chloro-6-[(2R)-3-(3,4-dihydro-1H-isoquinolin-2-yl)-2-hydroxy-propyl]-7,8-dihydro-1,6-naphthyridin-5-one] |
| 100 to 1000 | O=C1c2ccc(N3CC4CC3CN4)cc2CCN1C[C@H](O)CN1CCc2ccccc2C1 (stereo partly drawn) [Example 76, 6-(2,5-diazabicyclo[2.2.1]heptan-2-yl)-2-[(2R)-3-(3,4-dihydro-1H-isoquinolin-2-yl)-2-hydroxy-propyl]-3,4-dihydroisoquinolin-1-one] |
| 100 to 1000 | O=C1c2ccc(NC3CCCNC3)cc2CCN1C[C@H](O)CN1CCc2ccccc2C1 (stereo partly drawn) [Example 77, 2-[(2R)-3-(3,4-dihydro-1H-isoquinolin-2-yl)-2-hydroxy-propyl]-6-(3-piperidylamino)-3,4-dihydroisoquinolin-1-one] |
| 1 to 100 | CC(C)(C)OC(=O)N1CCCN(c2ccc3c(c2)CCN(C[C@H](O)CN2CCc4ccccc4C2)C3=O)CC1 [Example 78, tert-butyl 4-[2-[(2R)-3-(3,4-dihydro-1H-isoquinolin-2-yl)-2-hydroxy-propyl]-1-oxo-3,4-dihydroisoquinolin-6-yl]-1,4-diazepane-1-carboxylate] |
| 1 to 100 | CN1CCCN(c2ccc3c(c2)CCN(C[C@H](O)CN2CCc4ccccc4C2)C3=O)CC1=O [Example 79, 2-[(2R)-3-(3,4-dihydro-1H-isoquinolin-2-yl)-2-hydroxy-propyl]-6-(4-methyl-3-oxo-1,4-diazepan-1-yl)-3,4-dihydroisoquinolin-1-one] |
| 1 to 100 | CC(=O)N1CCCN(c2ccc3c(c2)CCN(C[C@H](O)CN2CCc4ccccc4C2)C3=O)CC1 [Example 80, 6-(4-acetyl-1,4-diazepan-1-yl)-2-[(2R)-3-(3,4-dihydro-1H-isoquinolin-2-yl)-2-hydroxy-propyl]-3,4-dihydroisoquinolin-1-one] |

| SMILES | IC50 [nM] |
| --- | --- |
| O=C1c2ccc(C3=CCNCC3)cc2CCN1C[C@H](O)CN1CCc2ccccc2C1 [Example 57, 2-[(2R)-3-(3,4-dihydro-1H-isoquinolin-2-yl)-2-hydroxy-propyl]-6-(1,2,3,6-tetrahydropyridin-4-yl)-3,4-dihydroisoquinolin-1-one] | 1 to 100 |
